Results: patent US10988456B2, “O-aminoheteroaryl alkynyl-containing compound, preparation method therefor, and use thereof” (SHANGHAI INSTITUTE OF MATERIA MEDICA, CHINESE ACADEMY OF …, priority 2017, dated 2021)

Tests used:
Assay in all cases: Inhibition of receptor tyrosine kinase activity at molecular level (ELISA, Poly(Glu,Tyr)4:1 substrate phosphorylation)
Assay type in all cases: biochemical
[1] = target: KDR (Homo sapiens, UniProt P35968); settings: 10 nM compound; average of two independent experiments
Experimental: (§1) Enzyme reaction substrate Poly(Glu, Tyr)4:1 was diluted with potassium-free PBS (10 mM sodium phosphate buffer, 150 mM NaCl, pH 7.2-7.4) to 20 μg/mL. […] The reaction was conducted under 37° C. for 12-16 hours. After the liquid was removed from the wells, the plate was washed three times with 200 μL/well of T-PBS (PBS containing 0.1% Tween-20), each for 5 minutes. The enzyme plate was dried in 37° C. dryer for 1-2 hours.
(§2) 50 μL ATP solution diluted with buffer (50 mM HEPES pH 7.4, 50 mM MgCl2, 0.5 mM MnCl2, 0.2 mM Na3VO4, 1 mM DTT) to a final concentration of 5 μM was added into each well. The compound was diluted with DMSO to a suitable concentration (1 μL/well) or the well contained the corresponding concentration of DMSO (negative control well) Then various kinase recombinant proteins diluted with 49 μL of reaction buffer was added to initiate the reaction. Each experiment required duplicate enzyme-free control well. The reaction was carried out for 1 hour on a 37° C. Shaker (100 rpm). The plate was washed three times with T-PBS. A dilution of the primary antibody PY99 was added (100 μL/well), and the reaction was conducted in a shaker at 37° C. for 0.5 hr. The plate was washed three times with T-PBS. A dilution of the horseradish peroxidase-labeled goat anti-mouse IgG secondary antibody was added (100 μL/well), and the reaction was conducted in a shaker at 37° C. for 0.5 hour. Plate was washed with T-PBS for three times. 2 mg/mL OPD coloration solution (diluted with 0.1 M citric acid-sodium citrate buffer containing 0.03% H2O2 (pH=5.4)) was added (100 μL/well), reacted for 1-10 minutes at 25° C. in dark. The reaction was quenched with 2M H2SO4 (50 μL/well), and read at 490 nm using a tunable microplate reader SPECTRA MAX 190.
(§3) The inhibition ratio of the sample was determined by the following formula: […]
(§4) The IC50 values were obtained via four-parameter regression analysis using the software supplied with the microplate reader.

[2] = target: FGFR1 (Homo sapiens, UniProt P11362); settings: for 10 nM inhibition ratio FGFR1: 10 nM compound, average of two independent experiments
Experimental: as §1, §2, §3, §4

[3] = target: RET (Homo sapiens, UniProt P07949); settings: 10 nM compound; average of two independent experiments
Experimental: as §1, §2, §3, §4

Chain of FGFR1 (P11362 22-822): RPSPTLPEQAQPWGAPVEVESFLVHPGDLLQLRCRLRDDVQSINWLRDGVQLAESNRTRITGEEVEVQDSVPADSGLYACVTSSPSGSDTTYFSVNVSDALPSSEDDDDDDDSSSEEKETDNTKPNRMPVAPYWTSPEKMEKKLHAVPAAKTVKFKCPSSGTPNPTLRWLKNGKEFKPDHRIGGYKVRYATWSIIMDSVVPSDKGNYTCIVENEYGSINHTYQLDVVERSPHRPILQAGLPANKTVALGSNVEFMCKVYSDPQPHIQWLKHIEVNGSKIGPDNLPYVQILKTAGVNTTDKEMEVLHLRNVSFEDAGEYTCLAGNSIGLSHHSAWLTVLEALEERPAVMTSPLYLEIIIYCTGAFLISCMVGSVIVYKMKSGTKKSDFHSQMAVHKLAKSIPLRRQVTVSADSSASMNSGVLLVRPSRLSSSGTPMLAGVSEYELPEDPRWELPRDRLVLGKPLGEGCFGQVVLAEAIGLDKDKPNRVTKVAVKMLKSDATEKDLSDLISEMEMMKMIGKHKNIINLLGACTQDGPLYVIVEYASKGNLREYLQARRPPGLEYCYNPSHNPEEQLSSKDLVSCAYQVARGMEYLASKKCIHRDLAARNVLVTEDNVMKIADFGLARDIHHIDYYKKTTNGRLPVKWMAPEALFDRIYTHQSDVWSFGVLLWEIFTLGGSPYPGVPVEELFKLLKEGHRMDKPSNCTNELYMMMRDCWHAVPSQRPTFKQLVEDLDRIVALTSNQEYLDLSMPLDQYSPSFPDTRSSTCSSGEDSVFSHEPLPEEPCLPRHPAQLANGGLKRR
Chain of KDR (P35968 20-1356): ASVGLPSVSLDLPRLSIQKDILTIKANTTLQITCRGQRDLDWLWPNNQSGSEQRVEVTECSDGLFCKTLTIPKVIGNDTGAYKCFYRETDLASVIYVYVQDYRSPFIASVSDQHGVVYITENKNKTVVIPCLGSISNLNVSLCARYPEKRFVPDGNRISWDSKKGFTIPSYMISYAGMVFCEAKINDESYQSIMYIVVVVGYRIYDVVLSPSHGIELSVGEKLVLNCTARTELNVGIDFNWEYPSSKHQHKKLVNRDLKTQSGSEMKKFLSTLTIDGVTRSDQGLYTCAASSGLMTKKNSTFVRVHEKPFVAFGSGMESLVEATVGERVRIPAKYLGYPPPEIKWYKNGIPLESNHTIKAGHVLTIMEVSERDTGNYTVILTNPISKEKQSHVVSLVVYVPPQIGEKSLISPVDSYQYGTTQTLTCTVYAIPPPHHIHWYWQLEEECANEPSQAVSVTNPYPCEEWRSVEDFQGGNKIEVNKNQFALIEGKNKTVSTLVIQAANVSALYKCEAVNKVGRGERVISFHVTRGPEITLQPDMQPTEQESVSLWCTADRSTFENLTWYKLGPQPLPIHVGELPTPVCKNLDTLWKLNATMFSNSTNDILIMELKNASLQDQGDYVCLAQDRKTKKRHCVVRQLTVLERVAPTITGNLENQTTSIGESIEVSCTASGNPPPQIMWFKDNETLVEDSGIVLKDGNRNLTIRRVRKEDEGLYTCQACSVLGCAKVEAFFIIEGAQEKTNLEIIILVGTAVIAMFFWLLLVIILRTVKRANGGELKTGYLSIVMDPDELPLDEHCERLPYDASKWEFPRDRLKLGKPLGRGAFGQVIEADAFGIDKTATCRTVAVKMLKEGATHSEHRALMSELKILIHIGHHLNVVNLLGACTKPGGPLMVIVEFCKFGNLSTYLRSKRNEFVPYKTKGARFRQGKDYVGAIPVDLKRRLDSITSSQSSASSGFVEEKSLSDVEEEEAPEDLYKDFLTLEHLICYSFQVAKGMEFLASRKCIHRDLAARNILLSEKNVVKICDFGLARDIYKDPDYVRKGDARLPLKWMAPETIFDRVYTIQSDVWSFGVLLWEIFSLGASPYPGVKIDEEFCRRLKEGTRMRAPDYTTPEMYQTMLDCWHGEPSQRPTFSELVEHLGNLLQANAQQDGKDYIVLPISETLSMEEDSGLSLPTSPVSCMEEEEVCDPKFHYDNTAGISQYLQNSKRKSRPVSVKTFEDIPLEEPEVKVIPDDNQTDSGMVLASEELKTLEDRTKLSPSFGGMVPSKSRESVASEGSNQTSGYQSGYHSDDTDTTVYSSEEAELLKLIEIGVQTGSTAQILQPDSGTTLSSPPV
Chain of RET (P07949 29-1114): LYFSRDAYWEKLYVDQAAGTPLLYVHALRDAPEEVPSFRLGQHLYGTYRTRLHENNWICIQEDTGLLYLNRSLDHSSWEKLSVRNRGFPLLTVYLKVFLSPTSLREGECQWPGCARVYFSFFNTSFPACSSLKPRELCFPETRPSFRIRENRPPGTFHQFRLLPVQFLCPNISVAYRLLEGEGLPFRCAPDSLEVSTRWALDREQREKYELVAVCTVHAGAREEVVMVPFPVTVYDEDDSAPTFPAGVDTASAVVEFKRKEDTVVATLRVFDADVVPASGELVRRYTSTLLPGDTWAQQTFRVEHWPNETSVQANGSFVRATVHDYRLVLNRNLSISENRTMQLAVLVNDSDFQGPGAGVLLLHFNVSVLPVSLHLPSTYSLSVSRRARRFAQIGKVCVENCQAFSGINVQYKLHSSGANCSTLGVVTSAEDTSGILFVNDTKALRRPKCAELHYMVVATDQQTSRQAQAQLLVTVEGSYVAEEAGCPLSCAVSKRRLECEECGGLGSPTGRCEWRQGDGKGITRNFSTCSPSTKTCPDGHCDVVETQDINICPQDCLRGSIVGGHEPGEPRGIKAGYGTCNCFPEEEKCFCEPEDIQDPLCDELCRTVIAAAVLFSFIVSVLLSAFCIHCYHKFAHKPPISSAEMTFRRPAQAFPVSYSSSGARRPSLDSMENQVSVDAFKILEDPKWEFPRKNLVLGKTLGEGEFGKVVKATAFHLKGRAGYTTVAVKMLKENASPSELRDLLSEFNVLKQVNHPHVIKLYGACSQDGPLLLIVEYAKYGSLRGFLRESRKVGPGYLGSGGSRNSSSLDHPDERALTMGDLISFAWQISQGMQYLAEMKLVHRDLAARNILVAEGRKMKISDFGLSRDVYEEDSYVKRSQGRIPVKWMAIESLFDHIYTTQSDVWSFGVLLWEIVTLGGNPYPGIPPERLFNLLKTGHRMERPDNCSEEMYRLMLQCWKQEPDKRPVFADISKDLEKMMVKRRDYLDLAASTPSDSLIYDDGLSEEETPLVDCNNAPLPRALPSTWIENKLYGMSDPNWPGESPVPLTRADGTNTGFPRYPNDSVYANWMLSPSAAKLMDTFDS

Structure (SMILES) | 10 nM inhibition ratio KDR [1] | 10 nM inhibition ratio FGFR1 [2] | 10 nM inhibition ratio RET [3] | inhibition ratio FGFR1 (100 nM) ([2]; 100 nM compound)
CN1CCN(Cc2ccc(NC(=O)c3ccc(Cl)c(C#Cc4cc(C5CC5)cnc4N)c3)cc2C(F)(F)F)CC1 [Example 19] | 13.2 | 59.3 | 69.4 | –
CN1CCN(Cc2ccc(NC(=O)c3cc(Cl)cc(C#Cc4cccnc4N)c3)cc2C(F)(F)F)CC1 [Example 9] | 28.9 | 60.7 | 83.4 | –
CN1CCN(Cc2ccc(NC(=O)c3ccc(Cl)c(C#Cc4cc(Cl)cnc4N)c3)cc2C(F)(F)F)CC1 [Example 17] | 25.0 | 68.0 | 73.3 | –
COCCOc1cnc(N)c(C#Cc2cc(C(=O)Nc3ccc(CN4CCN(C)CC4)c(C(F)(F)F)c3)ccc2Cl)c1 [Example 27] | 34.1 | 78.2 | 69.5 | –
CN(C)CCOc1cnc(N)c(C#Cc2cc(C(=O)Nc3ccc(CN4CCN(C)CC4)c(C(F)(F)F)c3)ccc2Cl)c1 [Example 29] | 14.3 | 44.9 | 55.2 | –
Cc1ccc(C(=O)Nc2ccc(CN3CCN(C)CC3)c(C(F)(F)F)c2)cc1C#Cc1cccnc1N [Example 3] | 34.7 | 52.4 | 69.1 | –
CN1CCN(Cc2ccc(NC(=O)c3ccc(Cl)c(C#Cc4cc(CO)cnc4N)c3)cc2C(F)(F)F)CC1 [Example 30] | 5.8 | 55.2 | 77.8 | –
Cc1cc(C#Cc2cccnc2N)cc(C(=O)Nc2ccc(CN3CCN(C)CC3)c(C(F)(F)F)c2)c1 [Example 12] | 24.0 | 75.1 | 73.2 | –
CN1CCN(Cc2ccc(NC(=O)c3ccc(F)c(C#Cc4cccnc4N)c3)cc2C(F)(F)F)CC1 [Example 2] | 44.3 | 73.0 | 69.2 | –
CN1CCN(Cc2ccc(NC(=O)c3ccc(Cl)c(C#Cc4cc(OCCO)cnc4N)c3)cc2C(F)(F)F)CC1 [Example 26] | 24.3 | 77.2 | 79.4 | –
CN1CCN(Cc2ccc(NC(=O)c3ccc(Cl)c(C#Cc4cccnc4N)c3)cc2C(F)(F)F)CC1.Cl [Example 52] | 40.2 | 75.2 | 89.3 | –
CN1CCN(Cc2ccc(NC(=O)c3ccc(Cl)c(C#Cc4cc(OC5CC5)cnc4N)c3)cc2C(F)(F)F)CC1 [Example 24] | 23.5 | 64.1 | 66.1 | –
CN1CCN(Cc2ccc(NC(=O)c3cc(C#Cc4cccnc4N)cc(C(F)(F)F)c3)cc2C(F)(F)F)CC1 [Example 10] | 34.5 | 36 | 63.4 | –
COc1ccc(C#Cc2cccnc2N)cc1C(=O)Nc1ccc(CN2CCN(C)CC2)c(C(F)(F)F)c1 [Example 15] | 15.4 | 59.9 | 61.2 | –
COc1cnc(N)c(C#Cc2cc(C(=O)Nc3ccc(CN4CCN(C)CC4)c(C(F)(F)F)c3)ccc2Cl)c1 [Example 22] | 24.9 | 75.1 | 59.3 | –
CN1CCN(Cc2ccc(NC(=O)c3cc(C#Cc4cccnc4N)ccc3F)cc2C(F)(F)F)CC1 [Example 8] | 30.4 | 46.0 | 53.4 | –
COc1ccc(C(=O)Nc2ccc(CN3CCN(C)CC3)c(C(F)(F)F)c2)cc1C#Cc1cccnc1N [Example 4] | 4.6 | 51.1 | 52.0 | –
CNCCOc1cnc(N)c(C#Cc2cc(C(=O)Nc3ccc(CN4CCN(C)CC4)c(C(F)(F)F)c3)ccc2Cl)c1 [Example 28] | 28.7 | 68.5 | 79.3 | –
CN1CCN(Cc2ccc(NC(=O)c3ccc(Cl)c(C#Cc4cc(OC(F)(F)F)cnc4N)c3)cc2C(F)(F)F)CC1 [Example 23] | 33.1 | 74.1 | 60.0 | –
CN1CCN(Cc2ccc(NC(=O)c3cc(F)cc(C#Cc4cccnc4N)c3)cc2C(F)(F)F)CC1 [Example 7] | 38.9 | 80.7 | 92.4 | –

Other lines, results leading:

10 nM inhibition ratio KDR [1] | 10 nM inhibition ratio FGFR1 [2] | 10 nM inhibition ratio RET [3] | inhibition ratio FGFR1 (100 nM) ([2]; 100 nM compound) | Structure (SMILES)
40.8 | 55.1 | 89.1 | – | CN1CCN(Cc2ccc(NC(=O)c3cccc(C#Cc4nc(F)cnc4N)c3)cc2C(F)(F)F)CC1 [Example 47]
42.1 | 78.3 | 87.0 | – | [2H]C([2H])([2H])N1CCN(Cc2ccc(NC(=O)c3ccc(Cl)c(C#Cc4cccnc4N)c3)cc2C(F)(F)F)CC1 [Example 53]
44.1 | 51.8 | 65.3 | – | CN1CCN(Cc2ccc(NC(=O)c3cccc(C#Cc4cc(NC(=O)C5CC5)cnc4N)c3)cc2C(F)(F)F)CC1 [Example 38]
33.2 | 77.1 | 69.5 | – | CN1CCN(Cc2ccc(NC(=O)c3ccc(Cl)c(C#Cc4c(F)ccnc4N)c3)cc2C(F)(F)F)CC1 [Example 49]
32.1 | 57.9 | 44.3 | – | CNc1cnc(N)c(C#Cc2cc(C(=O)Nc3ccc(CN4CCN(C)CC4)c(C(F)(F)F)c3)ccc2Cl)c1 [Example 35]
26.4 | – | 35.2 | 19.9 | Cc1ncccc1C#Cc1cc(C(=O)Nc2ccc(CN3CCN(C)CC3)c(C(F)(F)F)c2)ccc1Cl [HuFGFR143, reference compound]
32.3 | 35.1 | 30.3 | – | CN1CCN(Cc2ccc(NC(=O)c3ccc(Cl)c(C#Cc4cccnc4F)c3)cc2C(F)(F)F)CC1 [HuFGFR150, reference compound]
34.3 | 48.7 | 78.0 | – | CN1CCN(Cc2ccc(NC(=O)c3cccc(C#Cc4nc(CO)cnc4N)c3)cc2C(F)(F)F)CC1 [Example 48]
36.6 | 58.2 | 77.3 | – | CN(C)CC=CC(=O)Nc1cnc(N)c(C#Cc2cc(C(=O)Nc3ccc(CN4CCN(C)CC4)c(C(F)(F)F)c3)ccc2Cl)c1 [Example 40]
18.0 | 44.3 | 57.8 | – | CN(C)Cc1cnc(N)c(C#Cc2cc(C(=O)Nc3ccc(CN4CCN(C)CC4)c(C(F)(F)F)c3)ccc2Cl)c1 [Example 34]
33.2 | 48.1 | 66.3 | – | CC(=O)Nc1cnc(N)c(C#Cc2cccc(C(=O)Nc3ccc(CN4CCN(C)CC4)c(C(F)(F)F)c3)c2)c1 [Example 37]
